The compounds below were run against Ba/F3 V617F cells (Homo sapiens, UniProt O60674, V617F, cells depend on it) (assay: Proliferation assay (Cell Titer-Glo, 72 h) utilizing Ba/F3 V617F cells). Details: Ba/F3 V617F cells, proliferation, level of activity given as class symbol, read-out: IC50 (the source's name).
Format: cell-based, mouse
Outline: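 Ba/F3 V617F cells in RPMI/10% FBS, 1×10^5 cells/mL, exposed in duplicate to 3-fold serial compound dilutions (top 5 mM DMSO stock, diluted 1:250, added as 2× solution in 5% FBS medium) for 72 h at 37 °C. Viability by Cell Titer-Glo luminescence; IC50 reported.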

Sequence of Ba/F3 V617F cells (O60674 whole entry V617F): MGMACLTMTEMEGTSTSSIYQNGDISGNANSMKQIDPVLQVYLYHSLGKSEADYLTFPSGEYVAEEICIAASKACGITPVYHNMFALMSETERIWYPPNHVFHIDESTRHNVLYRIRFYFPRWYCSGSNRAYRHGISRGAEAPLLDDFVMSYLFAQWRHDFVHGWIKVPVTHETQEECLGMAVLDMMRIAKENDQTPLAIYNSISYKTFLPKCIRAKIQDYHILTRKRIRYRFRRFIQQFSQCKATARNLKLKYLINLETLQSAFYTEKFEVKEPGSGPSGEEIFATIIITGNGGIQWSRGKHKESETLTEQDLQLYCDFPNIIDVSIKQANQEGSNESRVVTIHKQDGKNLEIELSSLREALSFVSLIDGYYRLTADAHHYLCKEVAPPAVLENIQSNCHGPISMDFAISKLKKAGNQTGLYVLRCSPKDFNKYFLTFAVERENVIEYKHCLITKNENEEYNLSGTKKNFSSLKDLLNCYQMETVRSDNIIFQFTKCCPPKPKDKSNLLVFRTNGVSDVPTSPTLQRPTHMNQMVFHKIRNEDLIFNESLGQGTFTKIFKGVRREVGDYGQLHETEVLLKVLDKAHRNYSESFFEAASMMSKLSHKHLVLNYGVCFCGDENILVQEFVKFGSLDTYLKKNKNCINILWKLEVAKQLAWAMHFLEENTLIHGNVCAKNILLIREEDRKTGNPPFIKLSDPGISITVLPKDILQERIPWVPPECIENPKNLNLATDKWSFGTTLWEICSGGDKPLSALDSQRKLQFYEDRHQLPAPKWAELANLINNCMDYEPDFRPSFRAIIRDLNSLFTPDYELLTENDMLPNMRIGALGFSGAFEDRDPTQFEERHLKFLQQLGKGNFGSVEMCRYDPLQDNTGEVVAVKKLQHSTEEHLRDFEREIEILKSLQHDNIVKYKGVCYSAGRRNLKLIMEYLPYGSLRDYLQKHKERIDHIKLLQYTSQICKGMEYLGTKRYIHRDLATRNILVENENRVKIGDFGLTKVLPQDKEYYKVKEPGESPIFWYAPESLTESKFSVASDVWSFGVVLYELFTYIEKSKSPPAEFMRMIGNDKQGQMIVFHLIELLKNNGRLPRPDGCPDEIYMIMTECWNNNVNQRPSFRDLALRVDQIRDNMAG

GI50, < 1000 nM:
Cc1cc(Nc2nccc(-c3ccc4c(c3)SCC(=O)N4)n2)ccc1N1C[C@@H]2C[C@H]1CN2C [compound 274, 4-(3-oxo-3,4-dihydro-2H-benzo[b][1,4]thiazin-7-yl)-N-(3-methyl-4-((1S,4S)-5-methyl-2,5-diazabicyclo[2.2.1]heptan-2-yl)phenyl)pyrimidin-2-amine]
Cc1cc(Nc2nccc(-c3ccc(OC4CCOCC4)nc3)n2)ccc1N1CCN2CCC1C2 (centres unmarked) [compound 275, 4-(6-(tetrahydropyran-4-yloxy)pyridin-3-yl)-N-(3-methyl-4-(1,4-diazabicyclo[3.2.1]octan-4-yl)phenyl)pyrimidin-2-amine]
Cc1cc(Nc2nccc(-c3ccc(N4CCOCC4)nc3)n2)ccc1N1CCN2CC[C@@H]1C2 [compound 276, 4-(6-(morpholin-4-yl)pyridin-3-yl)-N-(3-methyl-4-((R)-1,4-diazabicyclo[3.2.1]octan-4-yl)phenyl)pyrimidin-2-amine]
Cc1cc(Nc2nccc(-c3ccc(N4CCOCC4)nc3)n2)ccc1N1CCN2CC[C@H]1C2 [compound 277, 4-(6-(morpholin-4-yl)pyridin-3-yl)-N-(3-methyl-4-((S)-1,4-diazabicyclo[3.2.1]octan-4-yl)phenyl)pyrimidin-2-amine]
Cc1cc(Nc2nccc(-c3ccc4c(c3)CCCC(=O)N4)n2)ccc1N1CCN2C(C1)[C@H]1CC[C@@H]2C1 (stereo partly drawn) [compound 278, 4-(2-oxo-2,3,4,5-tetrahydro-1H-benzo[b]azepin-7-yl)-N-(3-methyl-4-((6R,9S)-6,9-methanooctahydro-1H-pyrido[1,2-a]pyrazin-2-yl)phenyl)pyrimidin-2-amine]
Cc1cc(Nc2nccc(-c3ccc4c(c3)SCC(=O)N4)n2)ccc1N1CCN2C(C1)[C@H]1CC[C@@H]2C1 (stereo partly drawn) [compound 279, 4-(3-oxo-3,4-dihydro-2H-benzo[b][1,4]thiazin-7-yl)-N-(3-methyl-4-((6R,9S)-6,9-methanooctahydro-1H-pyrido[1,2-a]pyrazin-2-yl)phenyl)pyrimidin-2-amine]
Cc1cc(Nc2nccc(-c3ccc(N4C[C@@H]5C[C@H]4CO5)nc3)n2)ccc1N1CCN2CCC1CC2 [compound 280, 4-(6-((1S,4S)-2-oxa-5-azabicyclo[2.2.1]heptan-5-yl)pyridin-3-yl)-N-(3-methyl-4-(1,4-diazabicyclo[3.2.2]nonan-4-yl)phenyl)pyrimidin-2-amine]
Cc1cc(Nc2nccc(-c3ccc(OC4CCOCC4)nc3)n2)ccc1N1C2CCC1CC(N(C)C)C2 (centres unmarked) [compound 283, 4-(6-(tetrahydropyran-4-yloxy)pyridin-3-yl)-N-(3-methyl-4-(3-(dimethylamino)-8-azabicyclo[3.2.1]octan-8-yl)phenyl)pyrimidin-2-amine]
Cc1cc(Nc2nccc(-c3ccc(N4CCOCC4)nc3)n2)ccc1N1C2CCC1CC(N1CCOCC1)C2 (centres unmarked) [compound 284, 4-(6-(morpholin-4-yl)pyridin-3-yl)-N-(3-methyl-4-(3-(morpholin-4-yl)-8-azabicyclo[3.2.1]octan-8-yl)phenyl)pyrimidin-2-amine]
Cc1cc(Nc2nccc(-c3ccc(OC4CCOCC4)nc3)n2)ccc1N1C2CCC1CC(N1CCOCC1)C2 (centres unmarked) [compound 285, 4-(6-(tetrahydropyran-4-yloxy)pyridin-3-yl)-N-(3-methyl-4-(3-(morpholin-4-yl)-8-azabicyclo[3.2.1]octan-8-yl)phenyl)pyrimidin-2-amine]
Cc1cc(Nc2nccc(-c3ccc(N4CCOCC4)nc3)n2)ccc1N1C2CCC1CC(N(C)C)C2 (centres unmarked) [compound 286, 4-(6-(morpholin-4-yl)pyridin-3-yl)-N-(3-methyl-4-(3-(dimethylamino)-8-azabicyclo[3.2.1]octan-8-yl)phenyl)pyrimidin-2-amine]

Source: patent US9624229B2, “Pyrimidine-2-amine compounds and their use as inhibitors of JAK kinases” (Rigel Pharmaceuticals, Inc., priority 2008, dated 2017)
